From ChEMBL document CHEMBL3297661, “1-Substituted-5-[(3,5-dinitrobenzyl)sulfanyl]-1H-tetrazoles and their isosteric analogs: A new class of selective antitubercular agents active against drug-susceptible and multidrug-resistant mycobacteria” (Eur J Med Chem, 2014)
Converted amounts (≈) assume the structure as drawn.

Legend:
Pseudomonas aeruginosa [1] = test: Antibacterial activity against Pseudomonas aeruginosa ATCC 9027 after 48 hrs by broth microdilution method; assay type: functional; settings: ATCC 9027, 48 h
Candida albicans [2] = test: Antifungal activity against Candida albicans ATCC 44859 after 24 hrs by broth microdilution method; assay type: functional; settings: ATCC 44859, 24 h
Candida albicans [3] = test: Antifungal activity against Candida albicans ATCC 44859 after 48 hrs by broth microdilution method; assay type: functional; settings: ATCC 44859, 48 h
Candida tropicalis [4] = test: Antifungal activity against Candida tropicalis 156 after 24 hrs by broth microdilution method; assay type: functional; settings: Candida tropicalis, 156, 24 h
Candida tropicalis [5] = test: Antifungal activity against Candida tropicalis 156 after 48 hrs by broth microdilution method; assay type: functional; settings: Candida tropicalis, 156, 48 h
Pichia kudriavzevii [6] = test: Antifungal activity against Candida krusei E28 after 24 hrs by broth microdilution method; assay type: functional; settings: E28, 24 h
Pichia kudriavzevii [7] = test: Antifungal activity against Candida krusei E28 after 48 hrs by broth microdilution method; assay type: functional; settings: E28, 48 h
Nakaseomyces glabratus [8] = test: Antifungal activity against Candida glabrata 20/I after 24 hrs by broth microdilution method; assay type: functional
Nakaseomyces glabratus [9] = test: Antifungal activity against Candida glabrata 20/I after 48 hrs by broth microdilution method; assay type: functional
Trichosporon asahii [10] = test: Antifungal activity against Trichosporon asahii 1188 after 24 hrs by broth microdilution method; assay type: functional; settings: Trichosporon asahii, 1188, 24 h
Trichosporon asahii [11] = test: Antifungal activity against Trichosporon asahii 1188 after 48 hrs by broth microdilution method; assay type: functional; settings: Trichosporon asahii, 1188, 48 h
Aspergillus fumigatus [12] = test: Antifungal activity against Aspergillus fumigatus 231 after 24 hrs by broth microdilution method; assay type: functional, organism-based; settings: Aspergillus fumigatus, 231, 24 h
Aspergillus fumigatus [13] = test: Antifungal activity against Aspergillus fumigatus 231 after 48 hrs by broth microdilution method; assay type: functional, organism-based; settings: Aspergillus fumigatus, 231, 48 h
Lichtheimia corymbifera [14] = test: Antifungal activity against Absidia corymbifera 272 after 24 hrs by broth microdilution method; assay type: functional, organism-based; settings: Lichtheimia corymbifera, 272, 24 h
Lichtheimia corymbifera [15] = test: Antifungal activity against Absidia corymbifera 272 after 48 hrs by broth microdilution method; assay type: functional, organism-based; settings: Lichtheimia corymbifera, 272, 48 h
[16] = system: Trichophyton mentagrophytes; test: Antifungal activity against Trichophyton mentagrophytes 445 after 72 hrs by broth microdilution method; assay type: functional, organism-based; settings: Trichophyton mentagrophytes, 445, 72 h
[17] = system: Trichophyton mentagrophytes; test: Antifungal activity against Trichophyton mentagrophytes 445 after 120 hrs by broth microdilution method; assay type: functional, organism-based; settings: Trichophyton mentagrophytes, 445, 120 h
[18] = system: Mycobacterium tuberculosis; test: Antimycobacterial activity against Mycobacterium tuberculosis CNCTC My 331/88 after 14 days by micromethod; assay type: functional; settings: CNCTC My 331/88, 336 h
[19] = system: Mycobacterium tuberculosis; test: Antimycobacterial activity against Mycobacterium tuberculosis CNCTC My 331/88 after 21 days by micromethod; assay type: functional; settings: CNCTC My 331/88, 504 h
Mycobacterium avium [20] = test: Antimycobacterial activity against Mycobacterium avium CNCTC My 330/88 after 14 days by micromethod; assay type: functional; settings: CNCTC My 330/88, 336 h
Mycobacterium avium [21] = test: Antimycobacterial activity against Mycobacterium avium CNCTC My 330/88 after 21 days by micromethod; assay type: functional; settings: CNCTC My 330/88, 504 h
Mycobacterium kansasii [22] = test: Antimycobacterial activity against Mycobacterium kansasii CNCTC My 235/80 after 7 days by micromethod; assay type: functional; settings: CNCTC My 235/80, 168 h
Mycobacterium kansasii [23] = test: Antimycobacterial activity against Mycobacterium kansasii CNCTC My 235/80 after 14 days by micromethod; assay type: functional; settings: CNCTC My 235/80, 336 h
Mycobacterium kansasii [24] = test: Antimycobacterial activity against Mycobacterium kansasii CNCTC My 235/80 after 21 days by micromethod; assay type: functional; settings: CNCTC My 235/80, 504 h
Mycobacterium kansasii [25] = test: Antimycobacterial activity against Mycobacterium kansasii 6509/96 after 7 days by micromethod; assay type: functional; settings: 6509/96, 168 h
Mycobacterium kansasii [26] = test: Antimycobacterial activity against Mycobacterium kansasii 6509/96 after 14 days by micromethod; assay type: functional; settings: 6509/96, 336 h
Mycobacterium kansasii [27] = test: Antimycobacterial activity against Mycobacterium kansasii 6509/96 after 21 days by micromethod; assay type: functional; settings: 6509/96, 504 h
Staphylococcus aureus [28] = test: Antibacterial activity against Staphylococcus aureus ATCC 6538 after 24 hrs by broth microdilution method; assay type: functional; settings: ATCC 6538, 24 h
Staphylococcus aureus [29] = test: Antibacterial activity against Staphylococcus aureus ATCC 6538 after 48 hrs by broth microdilution method; assay type: functional; settings: ATCC 6538, 48 h
Staphylococcus aureus [30] = test: Antibacterial activity against methicillin-resistant Staphylococcus aureus H 5996/08 after 24 hrs by broth microdilution method; assay type: functional; settings: H 5996/08, 24 h
Staphylococcus aureus [31] = test: Antibacterial activity against methicillin-resistant Staphylococcus aureus H 5996/08 after 48 hrs by broth microdilution method; assay type: functional; settings: H 5996/08, 48 h
[32] = system: Staphylococcus epidermidis; test: Antibacterial activity against Staphylococcus epidermidis H 6966/08 after 24 hrs by broth microdilution method; assay type: functional; settings: H 6966/08, 24 h
[33] = system: Staphylococcus epidermidis; test: Antibacterial activity against Staphylococcus epidermidis H 6966/08 after 48 hrs by broth microdilution method; assay type: functional; settings: H 6966/08, 48 h
Enterococcus faecalis [34] = test: Antibacterial activity against Enterococcus faecalis J 14365/08 after 24 hrs by broth microdilution method; assay type: functional; settings: J 14365/08, 24 h
Enterococcus faecalis [35] = test: Antibacterial activity against Enterococcus faecalis J 14365/08 after 48 hrs by broth microdilution method; assay type: functional; settings: J 14365/08, 48 h
Escherichia coli [36] = test: Antibacterial activity against Escherichia coli ATCC 8739 after 24 hrs by broth microdilution method; assay type: functional; settings: ATCC 8739, ATCC 8739, 24 h
Escherichia coli [37] = test: Antibacterial activity against Escherichia coli ATCC 8739 after 48 hrs by broth microdilution method; assay type: functional; settings: ATCC 8739, ATCC 8739, 48 h
Klebsiella pneumoniae [38] = test: Antibacterial activity against Klebsiella pneumoniae D 11750/08 after 24 hrs by broth microdilution method; assay type: functional; settings: D 11750/08, 24 h
Klebsiella pneumoniae [39] = test: Antibacterial activity against Klebsiella pneumoniae D 11750/08 after 48 hrs by broth microdilution method; assay type: functional; settings: D 11750/08, 48 h
Klebsiella pneumoniae [40] = test: Antibacterial activity against extended spectrum beta-lactamase producing Klebsiella pneumoniae J 14368/08 after 24 hrs by broth microdilution method; assay type: functional; settings: J 14368/08, 24 h
Klebsiella pneumoniae [41] = test: Antibacterial activity against extended spectrum beta-lactamase producing Klebsiella pneumoniae J 14368/08 after 48 hrs by broth microdilution method; assay type: functional; settings: J 14368/08, 48 h
Pseudomonas aeruginosa [42] = test: Antibacterial activity against Pseudomonas aeruginosa ATCC 9027 after 24 hrs by broth microdilution method; assay type: functional; settings: ATCC 9027, 24 h

**Q.** Which results are given for `O=[N+]([O-])c1cc(CSc2cccc[n+]2[O-])cc([N+](=O)[O-])c1`?
**A.** IC95 (Pseudomonas aeruginosa [1]): > 500 µM; IC80 (Candida albicans [2]): > 500 µM; IC80 (Candida albicans [3]): > 500 µM; IC80 (Candida tropicalis [4]): > 500 µM; IC80 (Candida tropicalis [5]): > 500 µM; IC80 (Pichia kudriavzevii [6]): > 500 µM; IC80 (Pichia kudriavzevii [7]): > 500 µM; IC80 (Nakaseomyces glabratus [8]): > 500 µM; IC80 (Nakaseomyces glabratus [9]): > 500 µM; IC80 (Trichosporon asahii [10]): > 500 µM; IC80 (Trichosporon asahii [11]): > 500 µM; IC50 (Aspergillus fumigatus [12]): > 500 µM; IC50 (Aspergillus fumigatus [13]): > 500 µM; IC50 (Lichtheimia corymbifera [14]): > 500 µM; IC50 (Lichtheimia corymbifera [15]): > 500 µM; IC50 [16]: > 500 µM; IC50 [17]: > 500 µM; MIC [18]: 62 µM (≈ 19.1 µg/mL); MIC [19]: 62 µM (≈ 19.1 µg/mL); MIC (Mycobacterium avium [20]): 500 µM (≈ 154 µg/mL); MIC (Mycobacterium avium [21]): 1000 µM (≈ 307 µg/mL); MIC (Mycobacterium kansasii [22]): 16 µM (≈ 4.92 µg/mL); MIC (Mycobacterium kansasii [23]): 32 µM (≈ 9.83 µg/mL); MIC (Mycobacterium kansasii [24]): 32 µM (≈ 9.83 µg/mL); MIC (Mycobacterium kansasii [25]): 125 µM (≈ 38.4 µg/mL); MIC (Mycobacterium kansasii [26]): 125 µM (≈ 38.4 µg/mL); MIC (Mycobacterium kansasii [27]): 125 µM (≈ 38.4 µg/mL); IC95 (Staphylococcus aureus [28]): > 500 µM; IC95 (Staphylococcus aureus [29]): > 500 µM; IC95 (Staphylococcus aureus [30]): > 500 µM; IC95 (Staphylococcus aureus [31]): > 500 µM; IC95 [32]: > 500 µM; IC95 [33]: > 500 µM; IC95 (Enterococcus faecalis [34]): > 500 µM; IC95 (Enterococcus faecalis [35]): > 500 µM; IC95 (Escherichia coli [36]): > 500 µM; IC95 (Escherichia coli [37]): > 500 µM; IC95 (Klebsiella pneumoniae [38]): > 500 µM; IC95 (Klebsiella pneumoniae [39]): > 500 µM; IC95 (Klebsiella pneumoniae [40]): > 500 µM; IC95 (Klebsiella pneumoniae [41]): > 500 µM; IC95 (Pseudomonas aeruginosa [42]): > 500 µM

**Q.** What does the source list for `O=C(O)c1cccc(-n2nnnc2SCc2cc([N+](=O)[O-])cc([N+](=O)[O-])c2)c1`?
**A.** IC95 (Pseudomonas aeruginosa [1]): > 500 µM; IC80 (Candida albicans [2]): > 500 µM; IC80 (Candida albicans [3]): > 500 µM; IC80 (Candida tropicalis [4]): > 500 µM; IC80 (Candida tropicalis [5]): > 500 µM; IC80 (Pichia kudriavzevii [6]): > 500 µM; IC80 (Pichia kudriavzevii [7]): > 500 µM; IC80 (Nakaseomyces glabratus [8]): > 500 µM; IC80 (Nakaseomyces glabratus [9]): > 500 µM; IC80 (Trichosporon asahii [10]): > 500 µM; IC80 (Trichosporon asahii [11]): > 500 µM; IC50 (Aspergillus fumigatus [12]): > 500 µM; IC50 (Aspergillus fumigatus [13]): > 500 µM; IC50 (Lichtheimia corymbifera [14]): > 500 µM; IC50 (Lichtheimia corymbifera [15]): > 500 µM; IC50 [16]: > 500 µM; IC50 [17]: > 500 µM; MIC [18]: 1000 µM (≈ 402 µg/mL); MIC [19]: 1000 µM (≈ 402 µg/mL); MIC (Mycobacterium avium [20]): 1000 µM (≈ 402 µg/mL); MIC (Mycobacterium avium [21]): 1000 µM (≈ 402 µg/mL); MIC (Mycobacterium kansasii [22]): 500 µM (≈ 201 µg/mL); MIC (Mycobacterium kansasii [23]): 1000 µM (≈ 402 µg/mL); MIC (Mycobacterium kansasii [24]): 1000 µM (≈ 402 µg/mL); MIC (Mycobacterium kansasii [25]): 1000 µM (≈ 402 µg/mL); MIC (Mycobacterium kansasii [26]): 1000 µM (≈ 402 µg/mL); MIC (Mycobacterium kansasii [27]): 1000 µM (≈ 402 µg/mL); IC95 (Staphylococcus aureus [28]): > 500 µM; IC95 (Staphylococcus aureus [29]): > 500 µM; IC95 (Staphylococcus aureus [30]): > 500 µM; IC95 (Staphylococcus aureus [31]): > 500 µM; IC95 [32]: 500 µM; IC95 [33]: > 500 µM; IC95 (Enterococcus faecalis [34]): > 500 µM; IC95 (Enterococcus faecalis [35]): > 500 µM; IC95 (Escherichia coli [36]): > 500 µM; IC95 (Escherichia coli [37]): > 500 µM; IC95 (Klebsiella pneumoniae [38]): > 500 µM; IC95 (Klebsiella pneumoniae [39]): > 500 µM; IC95 (Klebsiella pneumoniae [40]): > 500 µM; IC95 (Klebsiella pneumoniae [41]): > 500 µM; IC95 (Pseudomonas aeruginosa [42]): > 500 µM
